Measured values as given in patent publication EP3539977B1, “ENZYMES WITH CHLOROGENIC ACID ESTERASE ACTIVITY AND FERULOYL ESTERASE ACTIVITY” (SternEnzym GmbH & Co. KG, priority 2014, dated 2016).
“And” between values parts separate entries of the source, which are not always exact repeats. Equal values may be shown once.

Biological target: T1, UmChlE (Mycosarcoma maydis, UniProt A0A060S684, P492L)
T1 construct: purification of the chlorogenic acid esterase UmChlE from culture supernatant of U. maydis was accomplished by three complementary separation steps; made in house; host or cells: Ustilago maydis itself (native producer), culture supernatant; Q Sepharose FF, preparative IEF, polyamide column
Assay: Kinetic parameters of UmChlE from initial hydrolysis rates
Type: biochemical, Ustilago maydis
Details: 0.005 - 1 mM substrate, 60 min, 37 °C, pH 7.5
Description: Km and vmax values were calculated with non-linear regression using SigmaPlot 10.0 (Systat Software Inc., Chicago, USA). Blanks were carried out for all assays using water instead of enzyme. For calculation of kcat the molecular mass was determined using denaturing SDS-PAGE.
Kinetic properties were determined from initial hydrolysis rates for the most preferred substrates chlorogenic acid, MFA and MpCA. […] Consequently, the catalytic efficiency (kca/Km), a good indicator for enzyme efficiency and specificity, was better for chlorogenic acid than for the two synthetic substrates.

O=C(/C=C/c1ccc(O)c(O)c1)O[C@@H]1C[C@](O)(C(=O)O)C[C@@H](O)[C@H]1O [chlorogenic acid]
Km: 19.6 µM

COC(=O)/C=C/c1ccc(O)cc1 [methyl p-coumarate]
Km (listed as MpCA): 64.1 µM and 64 µM

COC(=O)/C=C/c1ccc(O)c(OC)c1 [methyl ferulate]
Km: 102 µM
